From ChEMBL document CHEMBL4819026, “4-Oxoquinolines and monoamine oxidase: When tautomerism matters” (Eur J Med Chem, 2021)
pIC50: −log10 of the molar value.

Tests used:
[1] = target: T1, Amine oxidase [flavin-containing] A (Homo sapiens, UniProt P21397); assay: Inhibition of recombinant human MAOA using kynuramine as substrate measured for 30 mins by fluorescence spectrophotometric assay
T1 sequence (P21397 whole entry): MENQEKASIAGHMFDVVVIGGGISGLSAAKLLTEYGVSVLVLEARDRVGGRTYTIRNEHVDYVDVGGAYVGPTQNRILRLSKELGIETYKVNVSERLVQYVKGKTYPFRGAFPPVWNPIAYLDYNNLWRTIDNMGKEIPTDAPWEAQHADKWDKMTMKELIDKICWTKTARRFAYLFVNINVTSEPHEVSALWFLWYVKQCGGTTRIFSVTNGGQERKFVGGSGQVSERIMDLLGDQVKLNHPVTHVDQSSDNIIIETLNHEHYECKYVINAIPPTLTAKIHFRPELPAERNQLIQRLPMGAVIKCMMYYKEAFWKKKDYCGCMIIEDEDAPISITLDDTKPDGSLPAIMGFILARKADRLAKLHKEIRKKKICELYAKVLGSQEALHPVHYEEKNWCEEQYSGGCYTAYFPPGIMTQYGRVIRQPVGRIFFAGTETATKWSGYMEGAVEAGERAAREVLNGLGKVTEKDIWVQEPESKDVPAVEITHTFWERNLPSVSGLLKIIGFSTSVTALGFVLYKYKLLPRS

[2] = target: T2, Amine oxidase [flavin-containing] B (Homo sapiens, UniProt P27338); assay: Inhibition of recombinant human MAOB using kynuramine as substrate measured for 30 mins by fluorescence spectrophotometric assay
T2 sequence (P27338 whole entry): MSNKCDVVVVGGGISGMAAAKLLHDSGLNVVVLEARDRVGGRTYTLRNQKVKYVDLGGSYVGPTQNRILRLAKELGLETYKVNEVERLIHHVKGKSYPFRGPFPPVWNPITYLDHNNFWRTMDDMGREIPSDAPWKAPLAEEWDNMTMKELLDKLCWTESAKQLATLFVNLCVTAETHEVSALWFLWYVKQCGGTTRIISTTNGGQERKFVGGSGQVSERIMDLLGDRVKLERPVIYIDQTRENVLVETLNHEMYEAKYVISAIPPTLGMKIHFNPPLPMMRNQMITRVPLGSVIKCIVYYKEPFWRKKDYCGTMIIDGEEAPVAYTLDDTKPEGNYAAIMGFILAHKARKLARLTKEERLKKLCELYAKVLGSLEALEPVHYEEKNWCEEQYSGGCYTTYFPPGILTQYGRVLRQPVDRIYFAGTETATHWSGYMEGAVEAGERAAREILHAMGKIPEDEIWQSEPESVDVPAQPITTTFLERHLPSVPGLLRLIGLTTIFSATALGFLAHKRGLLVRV

Homo sapiens = species: Homo sapiens; assay: Selectivity index, ratio of IC50 for inhibition of human MAOA to IC50 for inhibition of human MAOB
[3] = Cytotoxicity against differentiated human SH-SY5Y cells assessed as cell viability at 10 uM after 24 hrs by resazurin reduction assay relative to control; assay type: cell-based; details: read-out: Activity
SH-SY5Y [4] = assay: Cytotoxicity against differentiated human SH-SY5Y cells assessed as cell viability at 1 to 10 uM after 24 hrs by neutral red uptake assay relative to control; assay type: cell-based; details: dose 1-10 µM
SH-SY5Y [5] = assay: Cytotoxicity against differentiated human SH-SY5Y cells assessed as cell viability at 1 to 10 uM after 24 hrs by SRB assay relative to control; assay type: cell-based; details: dose 1-10 µM
[6] = target: T1, Amine oxidase [flavin-containing] A; assay: Inhibition of recombinant human MAOA using kynuramine as substrate at 10 uM measured for 30 mins by fluorescence spectrophotometric assay relative to control; details: 0.5 h
[7] = target: T2, Amine oxidase [flavin-containing] B; assay: Inhibition of recombinant human MAOB using kynuramine as substrate at 10 uM measured for 30 mins by fluorescence spectrophotometric assay relative to control; details: 0.5 h

SMILES	pIC50 [1]	pIC50 [2]	Ratio IC50 (Homo sapiens)	viability at 24 h, 10 µM [3] [%]	Activity (SH-SY5Y [4])	Activity (SH-SY5Y [5])	inhibition at 10 µM [6] [%]	inhibition at 10 µM [7] [%]
Cn1cc(C(=O)Nc2cccc(Cl)c2)c(=O)c2ccccc21	2.13	4.54	258	> 90	Non-Toxic	Non-Toxic	–	–
Cc1ccc(NC(=O)c2c[nH]c3ccccc3c2=O)cc1C	–	–	–	–	–	–	15	35
O=C(Nc1cccc(Cl)c1)c1c[nH]c2ccccc2c1=O	–	–	–	–	–	–	8	40
O=C(Nc1ccc(Cl)c(Cl)c1)c1c[nH]c2ccccc2c1=O	2.76	4.95	157	–	Non-Toxic	Non-Toxic	–	–
Cn1cc(C(=O)Nc2ccc(Cl)c(Cl)c2)c(=O)c2ccccc21	–	5.28	> 1890	> 90	Non-Toxic	Non-Toxic	38	–
Cc1ccc(NC(=O)c2cn(C)c3ccccc3c2=O)cc1C	2.94	4.08	19.6	–	Non-Toxic	Non-Toxic	–	–
